Patent US5308608A, “Photosensitizing Diels-Alder porphyrin derivatives” (University of British Columbia, priority 1992, dated 1994)

System: MI-S
Test: In vitro photosensitizing cytotoxicity (LD50) on cell line MI-S, 700-820 nm light for 30 minutes
Format: cell-based
Conditions: eosin-Y exclusion or tritium-labeled thymidine uptake
Protocol: Various invention compounds were assayed in vitro using either cell line P815 or MI-S as model systems to test their photosensitizing activity. In the standard protocol, various concentrations of test compounds were added to washed suspensions of cells from cultures of the target cells and the mixtures were then irradiated using 700-820 nm light for 30 minutes. The results were assayed by determining cytotoxicity using direct counting using eosin-Y exclusion, a standard procedure for differentiating living from dead cells.
In other determinations conducted as above, the cells recovered from light exposure were assayed for viability by incubating them for 18 hours in 10 mCi/ml tritium-labeled thymidine according to the standard procedure whereby thymidine incorporation is equated with viability. The cells were harvested and radioactivity uptake was measured by a scintillation counter.

CCc1c(C)c2cc3nc(cc4[nH]c(cc5nc(cc1[nH]2)C1(C)C5=CCC2C(=O)N(c5ccccc5)C(=O)C21)c(C)c4CC)C1(C)C3=CCC2C(=O)N(c3ccccc3)C(=O)C21 (stereo not shown) [Compound 12]
LD50: 100 ng
